# From US20220143023A1, “COMPOUNDS WITH ANTI-TUMOR ACTIVITY AGAINST CANCER CELLS BEARING EGFR OR HER2 EXON 20 INSERTIONS” (Board of Regents, The University of Texas System, priority 2019, published 2022)
# Tests used:
# [1] = target: Ba/F3 cell lines expressing EGFR exon 20 insertion mutations (Homo sapiens, UniProt P00533, cells depend on it, form not given); assay: Ba/F3 cell viability (Cell Titer Glo), EGFR exon 20 insertions; assay type: cell-based
# EGFR D770insNPG mice = assay: EGFR exon 20 GEMM tumor burden by MRI; assay type: in vivo
# Description: EGFR D770insNPG and HER2 A775insYVMA GEMMs were generated as previously described (Perera et al., 2009; Cho et al., 2013). Mice were handled in accordance with Good Animal Practices as defined by the Office of Laboratory Animal Welfare and done in with approval from Dana-Farber Cancer Institute Institutional Animal Care and Use Committee (Boston, Mass.). Mice were fed a continuous doxycycline diet from 6 weeks of age. Tumor volume was determined by Mill as previously described (Perera et al., 2009; Cho et al., 2013). Mice with equal initial tumor volume were non-blindly randomized to vehicle and 10 mg/kg poziotinib daily upon obvious tumor formation determined by Mill. Mice humanly euthanized for events unrelated to tumor burden were excluded from final analysis.
# [2] = target: T1, Ba/F3 cell lines with the C797S mutation (Homo sapiens, UniProt P00533, T790M/C797S, cells depend on it, form not given); assay: Ba/F3 cell viability, C797S mutation; assay type: cell-based; details: Ba/F3, 72 hours; read-out: IC50, C797S mutation
# T1 construct: puro-EGFR L858R/T790M from Addgene; puro-EGFR Del1/T790M from Addgene
# From the text: All cell lines were free of Mycoplasma.
# Each experiment was replicated 3 times unless indicated.
# [3] = test system: MCF10A cells expressing HER2 Y772dupYVMA; assay: MCF10A cell viability, HER2 Y772dupYVMA; assay type: cell-based; details: Homo sapiens, MCF-10A; 72 hours
# Description: Briefly, 2000-3000 cells per well were plated in 384-well plates (Greiner Bio-One) in technical triplicate. […] After 3 days, 11 μL of Cell Titer Glo was added to each well. Plates were shaken for 15 minutes, and bioluminescence was determined using a FLUOstar OPTIMA multi-mode micro-plate reader (BMG LABTECH). Bioluminescence values were normalized to DMSO treated cells, and normalized values were plotted in GraphPad Prism using non-linear regression fit to normalized data with a variable slope.
# MCF10A cells were purchased from ATCC and were cultured in DMEM/F12 media supplemented with 1% penicillin/streptomycin, 5% horse serum (sigma), 20 ng/ml EGF, 0.5 mg/ml hydrocortisone, and 10 μg/ml insulin. […] Two days after transduction, 0.5 μg/ml puromycin (Invitrogen) was added to the RPMI media. […] CW-2 cells were provided by the Riken cell line database under MTA, and were maintained in RPMI containing 10% FBS and 1% penicillin/streptomycin.
# [4] = target: Ba/F3 cells expressing EGFR A763insLQEA (Homo sapiens, UniProt P00533, INS763LQEA, cells depend on it); assay: Ba/F3 cell viability, poziotinib IC50; assay type: cell-based
# [5] = target: Ba/F3 cells expressing EGFR S768dupSVD V7689M (Homo sapiens, UniProt P00533, DUP768-770, cells depend on it, form not given); assay: Ba/F3 cell viability, poziotinib IC50; assay type: cell-based
# Chain of Ba/F3 cells expressing EGFR S768dupSVD V7689M (P00533 whole entry, looked up, stated change not applied): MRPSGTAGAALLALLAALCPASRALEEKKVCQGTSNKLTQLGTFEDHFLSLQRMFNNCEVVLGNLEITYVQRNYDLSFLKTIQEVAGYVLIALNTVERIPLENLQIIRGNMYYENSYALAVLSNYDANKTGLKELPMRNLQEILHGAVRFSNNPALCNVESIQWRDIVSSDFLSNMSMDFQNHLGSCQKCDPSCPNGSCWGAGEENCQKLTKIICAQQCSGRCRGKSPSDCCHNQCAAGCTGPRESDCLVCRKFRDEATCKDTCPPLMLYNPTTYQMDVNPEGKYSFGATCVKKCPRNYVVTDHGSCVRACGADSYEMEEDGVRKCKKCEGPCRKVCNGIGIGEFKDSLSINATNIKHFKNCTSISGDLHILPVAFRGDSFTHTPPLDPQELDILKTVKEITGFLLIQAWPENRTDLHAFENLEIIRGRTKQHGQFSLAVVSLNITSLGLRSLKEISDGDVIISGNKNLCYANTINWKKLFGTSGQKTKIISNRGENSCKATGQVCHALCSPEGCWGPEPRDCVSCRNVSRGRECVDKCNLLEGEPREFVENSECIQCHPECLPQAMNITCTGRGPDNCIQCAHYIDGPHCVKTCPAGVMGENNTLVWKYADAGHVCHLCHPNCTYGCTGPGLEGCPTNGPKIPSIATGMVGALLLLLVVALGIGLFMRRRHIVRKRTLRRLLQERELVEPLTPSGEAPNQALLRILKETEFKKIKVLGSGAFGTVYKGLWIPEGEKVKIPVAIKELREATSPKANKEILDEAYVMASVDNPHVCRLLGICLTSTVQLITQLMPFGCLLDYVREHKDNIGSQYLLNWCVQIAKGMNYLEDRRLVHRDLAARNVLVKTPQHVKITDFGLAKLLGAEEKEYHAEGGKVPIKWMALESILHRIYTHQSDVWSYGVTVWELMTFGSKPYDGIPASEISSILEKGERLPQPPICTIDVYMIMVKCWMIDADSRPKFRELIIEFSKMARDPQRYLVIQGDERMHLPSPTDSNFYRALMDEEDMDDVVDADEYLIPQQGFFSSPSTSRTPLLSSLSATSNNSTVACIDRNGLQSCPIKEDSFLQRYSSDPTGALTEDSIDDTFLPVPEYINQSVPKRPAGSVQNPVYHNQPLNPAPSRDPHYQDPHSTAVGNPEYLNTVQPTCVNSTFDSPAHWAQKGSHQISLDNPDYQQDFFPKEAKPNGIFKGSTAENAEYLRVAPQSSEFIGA
# [6] = target: Ba/F3 cells expressing EGFR V769insGSV (Homo sapiens, UniProt P00533, INS769GSV, cells depend on it); assay: Ba/F3 cell viability, poziotinib IC50; assay type: cell-based
# [7] = target: T2, Ba/F3 cells expressing EGFR D770insSVD (Homo sapiens, UniProt P00533, DUP768-770, cells depend on it); assay: Ba/F3 cell viability, poziotinib IC50; assay type: cell-based
# T2 construct: from pBabe-puro-EGFR WT, Addgene (#11011)
# [8] = target: Ba/F3 cells expressing EGFR N771dupN (Homo sapiens, UniProt P00533, DUP771-771, cells depend on it); assay: Ba/F3 cell viability, poziotinib IC50; assay type: cell-based
# Chain of Ba/F3 cells expressing EGFR N771dupN (P00533 with tags, fused parts or gaps DUP771-771): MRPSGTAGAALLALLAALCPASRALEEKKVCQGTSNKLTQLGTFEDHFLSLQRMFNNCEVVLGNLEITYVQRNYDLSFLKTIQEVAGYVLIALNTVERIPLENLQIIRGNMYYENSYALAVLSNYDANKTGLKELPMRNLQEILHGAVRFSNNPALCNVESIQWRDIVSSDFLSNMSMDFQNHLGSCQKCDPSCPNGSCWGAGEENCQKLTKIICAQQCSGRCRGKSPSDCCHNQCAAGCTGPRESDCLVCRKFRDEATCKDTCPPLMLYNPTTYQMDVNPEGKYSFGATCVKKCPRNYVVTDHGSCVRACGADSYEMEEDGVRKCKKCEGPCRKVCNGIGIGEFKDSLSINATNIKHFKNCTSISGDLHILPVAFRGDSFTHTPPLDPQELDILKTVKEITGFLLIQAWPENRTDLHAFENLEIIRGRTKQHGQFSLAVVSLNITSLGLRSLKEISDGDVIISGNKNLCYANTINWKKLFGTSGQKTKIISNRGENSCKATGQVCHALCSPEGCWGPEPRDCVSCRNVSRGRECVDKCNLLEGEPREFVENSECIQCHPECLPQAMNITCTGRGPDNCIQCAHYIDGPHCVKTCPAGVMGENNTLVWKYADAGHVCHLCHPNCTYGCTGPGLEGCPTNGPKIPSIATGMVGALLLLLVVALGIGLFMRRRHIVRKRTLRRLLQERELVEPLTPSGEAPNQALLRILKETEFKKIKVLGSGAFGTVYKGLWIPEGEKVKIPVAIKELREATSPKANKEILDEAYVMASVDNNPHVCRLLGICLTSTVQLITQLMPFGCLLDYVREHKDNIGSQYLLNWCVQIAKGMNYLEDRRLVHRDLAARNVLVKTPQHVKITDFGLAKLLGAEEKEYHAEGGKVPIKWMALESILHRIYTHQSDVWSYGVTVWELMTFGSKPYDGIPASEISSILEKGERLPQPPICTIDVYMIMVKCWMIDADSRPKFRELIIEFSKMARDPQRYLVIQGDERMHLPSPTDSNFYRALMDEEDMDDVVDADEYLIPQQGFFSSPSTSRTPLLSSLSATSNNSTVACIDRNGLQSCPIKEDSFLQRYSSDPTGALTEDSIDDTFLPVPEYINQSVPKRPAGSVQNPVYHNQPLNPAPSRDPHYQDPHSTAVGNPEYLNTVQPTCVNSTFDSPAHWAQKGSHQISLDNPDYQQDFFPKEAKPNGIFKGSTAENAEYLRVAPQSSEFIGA
# [9] = target: Ba/F3 cells expressing EGFR P772insDNP (Homo sapiens, UniProt P00533, DUP770-772, cells depend on it); assay: Ba/F3 cell viability, poziotinib IC50; assay type: cell-based
# [10] = target: Ba/F3 cells expressing EGFR V774M (Homo sapiens, UniProt P00533, V774M, cells depend on it); assay: Ba/F3 cell viability, poziotinib IC50; assay type: cell-based
# Chain of Ba/F3 cells expressing EGFR V774M (P00533 whole entry V774M): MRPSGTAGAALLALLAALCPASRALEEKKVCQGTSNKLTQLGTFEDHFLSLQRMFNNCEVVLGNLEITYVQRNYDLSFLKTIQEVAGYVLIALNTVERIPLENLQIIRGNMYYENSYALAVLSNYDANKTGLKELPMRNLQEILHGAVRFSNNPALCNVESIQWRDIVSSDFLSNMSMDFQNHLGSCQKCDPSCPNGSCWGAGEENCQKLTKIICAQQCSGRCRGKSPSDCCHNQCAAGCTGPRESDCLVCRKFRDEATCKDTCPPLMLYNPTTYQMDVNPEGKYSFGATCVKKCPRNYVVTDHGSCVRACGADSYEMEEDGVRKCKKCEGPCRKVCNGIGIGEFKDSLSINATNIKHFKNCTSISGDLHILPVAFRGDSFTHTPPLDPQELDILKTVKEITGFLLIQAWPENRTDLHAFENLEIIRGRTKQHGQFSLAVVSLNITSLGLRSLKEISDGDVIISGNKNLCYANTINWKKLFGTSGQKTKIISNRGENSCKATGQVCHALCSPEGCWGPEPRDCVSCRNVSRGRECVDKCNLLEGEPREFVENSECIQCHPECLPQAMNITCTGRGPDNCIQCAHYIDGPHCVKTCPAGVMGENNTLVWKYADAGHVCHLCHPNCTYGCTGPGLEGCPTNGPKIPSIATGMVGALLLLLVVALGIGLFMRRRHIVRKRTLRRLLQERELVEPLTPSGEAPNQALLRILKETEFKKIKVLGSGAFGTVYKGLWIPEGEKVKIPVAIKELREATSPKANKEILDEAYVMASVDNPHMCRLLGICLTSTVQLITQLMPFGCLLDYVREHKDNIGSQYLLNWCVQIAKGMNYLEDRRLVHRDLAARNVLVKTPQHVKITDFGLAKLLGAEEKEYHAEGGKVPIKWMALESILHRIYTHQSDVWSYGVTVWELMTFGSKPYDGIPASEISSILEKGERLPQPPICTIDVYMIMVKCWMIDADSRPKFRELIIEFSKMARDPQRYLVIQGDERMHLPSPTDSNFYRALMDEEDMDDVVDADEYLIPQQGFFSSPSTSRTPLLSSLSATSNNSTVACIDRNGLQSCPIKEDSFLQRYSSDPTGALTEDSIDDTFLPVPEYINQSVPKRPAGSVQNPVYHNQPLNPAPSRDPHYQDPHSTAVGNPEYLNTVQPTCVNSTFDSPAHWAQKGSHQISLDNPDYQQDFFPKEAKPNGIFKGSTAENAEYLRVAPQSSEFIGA
# Chain of Ba/F3 cell lines expressing EGFR exon 20 insertion mutations (P00533 25-1210 limits assumed, stated change not applied): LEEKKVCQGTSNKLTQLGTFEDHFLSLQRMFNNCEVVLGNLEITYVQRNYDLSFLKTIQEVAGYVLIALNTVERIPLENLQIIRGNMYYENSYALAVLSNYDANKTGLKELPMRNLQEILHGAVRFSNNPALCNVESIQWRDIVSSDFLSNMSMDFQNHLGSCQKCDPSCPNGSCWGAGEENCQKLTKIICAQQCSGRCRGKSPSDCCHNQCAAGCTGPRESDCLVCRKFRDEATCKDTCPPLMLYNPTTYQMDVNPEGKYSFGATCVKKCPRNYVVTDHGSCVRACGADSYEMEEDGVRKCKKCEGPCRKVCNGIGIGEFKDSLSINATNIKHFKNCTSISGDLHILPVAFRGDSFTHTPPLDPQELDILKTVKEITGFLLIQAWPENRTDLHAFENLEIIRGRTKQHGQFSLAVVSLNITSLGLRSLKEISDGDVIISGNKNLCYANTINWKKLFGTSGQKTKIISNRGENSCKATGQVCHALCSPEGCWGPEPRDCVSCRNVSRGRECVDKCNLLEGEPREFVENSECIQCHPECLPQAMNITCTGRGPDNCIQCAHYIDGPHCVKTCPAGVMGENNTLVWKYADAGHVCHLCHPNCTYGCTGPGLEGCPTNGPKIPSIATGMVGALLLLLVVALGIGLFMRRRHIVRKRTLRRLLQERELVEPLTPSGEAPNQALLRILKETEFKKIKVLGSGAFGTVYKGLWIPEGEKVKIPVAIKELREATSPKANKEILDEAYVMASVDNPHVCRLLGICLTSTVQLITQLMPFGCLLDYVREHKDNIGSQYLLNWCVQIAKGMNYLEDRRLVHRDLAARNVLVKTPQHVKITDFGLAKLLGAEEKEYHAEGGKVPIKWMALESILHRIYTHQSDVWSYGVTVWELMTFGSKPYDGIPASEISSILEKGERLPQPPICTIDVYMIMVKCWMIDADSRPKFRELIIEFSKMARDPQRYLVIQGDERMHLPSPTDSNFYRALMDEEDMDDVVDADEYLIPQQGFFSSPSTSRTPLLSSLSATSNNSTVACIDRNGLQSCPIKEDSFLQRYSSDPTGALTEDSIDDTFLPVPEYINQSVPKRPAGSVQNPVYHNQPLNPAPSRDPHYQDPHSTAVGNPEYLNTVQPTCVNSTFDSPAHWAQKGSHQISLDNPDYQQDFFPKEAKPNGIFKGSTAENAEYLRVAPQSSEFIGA
smiles,measurement,setting,value
"C=CC(=O)N1CCC(Oc2cc3c(Nc4ccc(Cl)c(Cl)c4F)ncnc3cc2OC)CC1 [poziotinib, 1-[4-[4-(3,4-dichloro-2-fluoroanilino)-7-methoxyquinazolin-6-yl]oxypiperidin-1-yl]prop-2-en-1-one]","times more potent than dacomitinib, EGFR exon 20 mutants",[1]; from average IC50,~65 times
same,"times more potent than osimertinib, EGFR exon 20 mutant Ba/F3",[1]; from average IC50,approximately 100 times
same,GI50,"[1]; read-out: IC50, Ave EGFR exon 20 insertions (N = 6 cell lines), Ba/F3, 72 hours, average over cell lines",1 nM
same,"reduction of tumor burden, EGFR exon 20 GEMM","EGFR D770insNPG mice; 10 mg/kg orally daily, 4 weeks, MRI",85%
same,"response at 12 weeks, EGFR GEM model","EGFR D770insNPG mice; 10 mg/kg, 5 days/week, 12 weeks",durable regression
same,GI50,[2],> 10000 nM
same,IC50,[3],8.3 nM
same,GI50,[4],0.082 nM
same,GI50,[5],0.401 nM
same,GI50,[6],1.23 nM
same,GI50,[7],2.38 nM
same,GI50,[8],0.204 nM
same,GI50,[9],2.89 nM
same,GI50,[10],0.095 nM
